Here are results for one compound from patent US6649793B1, “Process for the preparation of a N,N-diamino amino acid-β-hydroxy disuccinic acid” (Board of Trustees of Michigan State University, priority 2002, dated 2003).

Each structure is given as a SMILES string.

The series is described as follows: Potentiometric calcium titration with calcium-selective electrode (calcium binding / chelation). The note with it: Ca2+ binding; 50 mL of 200 ppm hardness solution at 25° C.; NH4Cl/NH4OH buffer pH=9.5, ionic strength 0.1M. Format: physicochemical. On the procedure:
Calcium chloride dihydrate was purchased from Fisher Scientific. A stock solution of 0.01M […] (1000 ppm, hardness CaCO3) was prepared with distilled deionized water, and 0.03M NH4Cl/0.07M NH4OH buffer (pH=9.5, ionic strength of 0.1M). The later chemicals were obtained from Columbus Chemical Industries, Inc. Standard solution ranging from 200 ppm to 10 ppm was prepared by dilution of the stock solution with the buffer. A plot of the logarithm of calcium ion concentration vs the normalized potential was constructed prior to each titration (Rechnitz, G. A., et al., Anal. Chem. 40 696 (1968); and Nagarajan, M. K., et al., JAOCS 61 1475 (1984)). This was necessary to minimize the effect of signal fluctuations due to solution condition (ionic strength, pH, and the like). […]
The electrode was immersed in a 50 mL of 200 ppm hardness solution at 25° C., and the meter reading was taken while the solution was being stirred by magnet (Blay, J. A., et al., Anal. Lett. 4, 653 (1971)). The calcium binding solution of Compound II was added in small increments and the equilibrium-free calcium ion concentration were measured. When the meter reading indicated less than 10 ppm present in solution, the titration was stopped. […] Chelation constant (logK) of compound II was determined to be 4.23±0.09 according to the following equation [formula] […]

As for `O=C(O)C(O)C(NCCCC[C@H](NC(C(=O)O)C(O)C(=O)O)C(=O)O)C(=O)O` (stereo partly drawn) [compound II, 2N,6N-lysine-β-hydroxy disuccinic acid], the “Chelation constant (logK)” value stood at 4.23±0.09.
